Legend:
Recombinant human GR = Recombinant human GR (Homo sapiens (Human), UniProt P04150); assay: GR competitive binding assay by fluorescence polarization; conditions: 20 μM test compound solution, 10 μL/well; 2 hours; DEX positive control; read-out: GR binding rate (%)
Method: In order to evaluate a binding activity of the present compound to GR, a GR receptor competitor assay was carried out by a fluorescence polarization method. In the assay, a GR competitive binding assay kit (manufactured by Invitrogen, cat No. P2816) was used for the assay, and a procedure was carried out according to the protocol attached to the kit. Hereinafter, the specific method will be described.
GR screening buffer: A buffer containing 10 mM of potassium phosphate (pH 7.4), 20 mM of sodium molybdate (Na2MoO4), 0.1 mM of ethylene diamine tetraacetic acid (EDTA), 5 mM of dithiothreitol (DTT), 0.1 mM of stabilizing peptide and 2% of dimethylsulfoxide was prepared.
4×GS1 solution: Fluormone™ GS1, which is a fluorescent glucocorticoid ligand, was diluted with GR screening buffer, whereby a 4 nM solution was prepared.
4×GR solution: Recombinant human GR was diluted with GR screening buffer, whereby a 16 nM solution was prepared.
After a test compound was dissolved in dimethylsulfoxide, the resulting solution was diluted with GR screening buffer, whereby a 20 μM test compound solution was prepared. In addition, DEX was similarly dissolved, whereby a DEX solution with a […] concentration was prepared, and the solution was diluted with GR screening buffer, whereby a 2 mM DEX solution was prepared. DEX was used as positive control.
• 1) The test compound solution was added in an amount of 10 μL into each well of a 384-well plate. • 2) 4×GS1 solution and 4×GR solution were added in an amount of 5 μL into each well, respectively. • 3) GR screening buffer was added in an amount of 10 μL/well into each well in place of the test compound solution, which was made a negative control. • 4) A 2 mM of DEX was added in an amount of 10 μL/well into each well in place of the test compound solution, which was made a positive control. • 5) The plate was incubated in a dark place at room temperature for 2 hours, and fluorescence polarization of each well was measured. (Calculation Equation of GR Binding Ratio)
A GR binding ratio (%) was calculated from the following equation. GR binding ratio (%)=100×{1−(fluorescence polarization of test compound solution−average value of fluorescence polarization of positive control solution)/(average value of fluorescence polarization of negative control solution−average value of fluorescence polarization of positive control solution)}

[1] = system: IL-6 production in human corneal epithelium cell line (HCE-T); assay: IL-6 production inhibitory action evaluation test (LPS stimulation, HTRF); type: cell-based; conditions: 4 hours
Method: To evaluate the action of the present compounds as a GR agonist, IL-6 production inhibitory action in human corneal epithelial cell line after LPS stimulation was examined The IL-6 production was measured by using the HTRF method (Cat No. 62IL6PEB manufactured by Cisbio Bioassays, Inc.) according to the attached protocol. The specific method is described below.
LPS solution: After dissolving LPS in PBS(−), the resulting solution was diluted with a culture solution, whereby an LPS solution with a 1 μg/mL concentration was prepared.
After dissolving the test compound in dimethylsulfoxide, the solution was diluted with a 10% FBS-DMEM/Ham's F12 medium, whereby a 100 μM of the test compound solution was prepared. […] In addition, DEX was similarly dissolved, whereby a 100 μM concentration of the DEX solution was prepared, and an IL-6 production inhibitory ratio of DEX was measured, and used for calculation of Efficacy (% DEX).
Used cells: human corneal epithelium cell line (HCE-T) (RIKEN, Institute of Physical and Chemical Research)
The cells continued to subculture according to this method were used for the test. (Test Method and Measurement Method) • 1) The subcultured HCE-T was recovered and the cells were seeded at 2.0×10^4 cells/0.1 mL/well in a 96-well flat bottom culture plate. • 2) After culturing overnight, medium the medium was removed and each 80 μL/well of 10%
FBS-DMEM/Ham's F12 medium was added. • 3) Test compound solution was added with each 10 μL/well. • 4) LPS solution was added with each 10 μL/well. • 5) The sample to which 1% dimethylsulfoxide-containing 10% FBS-DMEM/Ham's F12 medium was added with each 10 μL/well in place of each test compound solution, and 10% FBS-DMEM/Ham's F12 medium was added in place of the LPS solution was made a negative control. • 6) The sample in which 1% dimethylsulfoxide-containing 10% FBS-DMEM/Ham's F12 medium was added with each 10 μL/well in place of each test compound solution was made a positive control. • 7) After completion of 4 hours cultivation, the supernatant was recovered and the amount of IL-6 released in the supernatant was measured by using an HTRF human IL-6 Kit. • 8) The IL-6 production inhibitory ratio was calculated according to the following calculation formula. (Calculation of IL-6 Production Inhibitory Ratio)
(§1) The IL-6 production inhibitory ratio (%) was calculated by the following formula. IL-6 production inhibitory ratio (%)=100×{1−(IL-6 produced amount of each test compound solution−average value of IL-6 produced amount of negative control group)/(average value of IL-6 produced amount of positive control group−average value of IL-6 produced amount of negative control group)}(%)
Further, the IL-6 production inhibitory ratio (Efficacy (% DEX)) when the DEX treated group was made 100 was calculated. Efficacy (% DEX)=100×{(average value of IL-6 production inhibitory ratio of each test compound solution)/(average value of IL-6 production inhibitory ratio of DEX treated group)}(%)
In addition, IC50 was calculated according to a conventional method. IDBS XLfit4 was used for the calculation.

[2] = system: TNFα production in rat whole blood; assay: TNFα production inhibitory action evaluation test (LPS stimulation ex vivo, ELISA); type: cell-based; conditions: 20 hours, 200 μM test compound solution 10 μL/well, DEX treated group = 100, read-out: TNFα production inhibitory ratio (% DEX)
Method: In order to evaluate an action of the present compound as a GR agonist, a TNFα production inhibitory action in rat whole blood after LPS stimulation ex vivo was investigated. For the measurement of the TNFα production amount, the ELISA method (manufactured by R&D Systems, Cat No. RTA00) was used, and a procedure was carried out according to the protocol attached thereto. Hereinafter, the specific method will be described.
LPS solution: LPS was dissolved in PBS(−) and diluted with RPMI 1640 to prepare an LPS solution with a concentration of 2 μg/mL.
After the test compound was dissolved in dimethylsulfoxide, the solution was diluted with PBS(−) to prepare 200 μM of a test compound solution. In addition, DEX was similarly dissolved to prepare 200 μM of a DEX solution, and a TNFα production inhibitory ratio of DEX was measured, and used for calculation of Efficacy (% DEX).
• 1) Blood was collected from 3 to 5 rats using an injection syringe treated with heparin from the abdominal aorta under isoflurane anesthesia. The rats confirmed death after lething the whole blood. • 2) The blood of 3 to 5 rats pooled in a 96-well round bottom culture plate was seeded at each 180 μL/well. • 3) It was cultured (37° C., 5% CO2, 95% air) for about 1 hour. • 4) The test compound solution was added each 10 μL/well, and cultured for 1 hour. • 5) LPS solution was added each 10 μL/well. • 6) The sample in which 2% dimethylsulfoxide-containing PBS(−) was added with each 10 μL/well in place of each test compound solution, and RPMI 1640 was added with each 10 μL/well in place of the LPS solution was made a negative control. • 7) The sample in which 2% dimethylsulfoxide-containing PBS(−) was added with each 10 μL/well in place of each test compound solution was made a positive control. • 8) After completion of 20 hours cultivation, the supernatant was recovered and the amount of TNFα released in the supernatant was measured by using an ELISA Kit. • 9) The TNFα production inhibitory ratio was calculated according to the following calculation formula. (Calculation of TNFα Production Inhibitory Ratio)
as §1, with “TNFα” for “The IL-6”, “according to” for “by”, “TNFα” for “IL-6”, “(%)=100×{1−(TNFα production” for “(%)=100×{1−(IL-6 produced”, “TNFα production” for “IL-6 produced”
Further, a TNFα production inhibitory ratio (Efficacy (% DEX)) when the DEX treated group was made 100 was calculated. Efficacy (% DEX)=100×{(average value of TNFα production inhibitory ratio of each test compound solution)/(average value of TNFα production inhibitory ratio of DEX treated group)}(%)

[3] = system: VEGF-induced retinal elevated vascular permeability model of rabbits; assay: Retinal vascular permeability model evaluation test; type: in vivo, rabbit; conditions: 8% 50 μL/base agent A, intravitreal once; 4 weeks before VEGF induction
Method: In order to evaluate the inhibitory effect of the present compounds on VEGF-induced retinal vascular permeability, the inhibitory effect of the present compound on retinal vascular permeability in a VEGF-induced retinal elevated vascular permeability model of rabbits was evaluated. Incidentally, this effect was evaluated by calculating a leaked amount of the fluorescent dye of the base agent administered group (non-induced group), a leaked amount of the fluorescent dye of the base agent administered group (control group) and a leaked amount of the fluorescent dye of the test compound administered group.
To the test compound was added 0.01% Polysorbate 80/0.5% sodium carboxymethyl cellulose/PBS (hereinafter referred to as “base agent A”.), whereby 2% (W/V) or 8% (W/V) of the test compound suspension was prepared. Or else, to the test compound was added PEG400 (hereinafter referred to as “base agent B”.), whereby 6% (W/W) of the test compound solution was prepared.
VEGF solution: humanVEGF165 was dissolved in PBS to prepare 50 μg/mL of VEGF solution.
• 1) A mixed solution (1 mL/kg) of 5% ketamine hydrochloride injection solution and 2% xylazine hydrochloride injection solution with the ratio of 7:1 was intramuscularly administered to rabbits (Dutch male rabbits), and the rabbits were anesthetized. • 2) Tropicamide-phenylephrine hydrochloride ophthalmic solution (trade name: Midlin P) was eye dropped to maintain pupillary mydriasis, and then, the VEGF solution was intravitreally administered. Incidentally, PBS was intravitreally administered to the base agent administration group (non-induced group). • 3) Fluorescein was intravenously administered 2 days after intravitreal administration of VEGF. Two hours after the intravenous administration of fluorescein, an amount of the leaked fluorescent dye in the vitreous body was measured by using a fluorophotometer. (Test Method) • 1) One week before or 4 weeks before VEGF-induction, 50 μL of the test compound suspension (prepared by the base agent A) was intravitreally administered once, or 5 μL of the test compound solution (prepared by the base agent B) was intravitreally administered once. Incidentally, in the base agent administered group (non-induced group) and the base agent administered group (control group), the base agent A was used in place of the test compound suspension, or the base agent B was used in place of the test compound solution. • 2) Inhibition ratio of elevated retinal vascular permeability was calculated according to the following calculation formula. (Calculation Formula) Inhibitory ratio (%) on elevated retinal vascular permeability of the test compound administered group=100×{1−(average value of a leaked fluorescent dye amount in the test compound administered group−average value of a leaked fluorescent dye amount in the base agent administered group (non-induced group))/(average value of a leaked fluorescent dye amount in the base agent administered group (control group)−average value of a leaked fluorescent dye amount of the base agent administered group (non-induced group))}

Chain of Recombinant human GR (P04150 whole entry): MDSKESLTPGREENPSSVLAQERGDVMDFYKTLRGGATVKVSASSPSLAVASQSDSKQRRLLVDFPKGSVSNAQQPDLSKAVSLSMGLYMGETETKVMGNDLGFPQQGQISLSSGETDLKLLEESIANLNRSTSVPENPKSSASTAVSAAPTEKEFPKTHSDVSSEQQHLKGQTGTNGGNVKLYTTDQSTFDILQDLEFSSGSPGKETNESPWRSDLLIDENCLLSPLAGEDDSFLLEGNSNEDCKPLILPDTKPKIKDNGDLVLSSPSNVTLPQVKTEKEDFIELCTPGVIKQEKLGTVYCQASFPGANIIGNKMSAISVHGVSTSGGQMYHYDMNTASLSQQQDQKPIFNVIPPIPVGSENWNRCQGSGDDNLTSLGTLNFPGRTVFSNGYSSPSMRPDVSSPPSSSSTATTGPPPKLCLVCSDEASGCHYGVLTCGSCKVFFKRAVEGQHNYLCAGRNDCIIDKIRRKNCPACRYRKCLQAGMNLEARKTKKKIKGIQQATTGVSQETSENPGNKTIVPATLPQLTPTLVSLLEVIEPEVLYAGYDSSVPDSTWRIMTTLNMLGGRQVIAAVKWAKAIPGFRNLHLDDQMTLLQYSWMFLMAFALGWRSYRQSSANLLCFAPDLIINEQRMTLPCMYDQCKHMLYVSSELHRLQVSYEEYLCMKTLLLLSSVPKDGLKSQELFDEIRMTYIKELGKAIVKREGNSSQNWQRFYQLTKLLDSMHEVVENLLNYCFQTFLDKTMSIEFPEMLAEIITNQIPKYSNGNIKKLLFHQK

Structure (SMILES)	inhibition at 10 µM (Recombinant human GR) [%]	Emax ([1]; 100 μM test compound solution 10 μL/well, DEX treated group = 100, read-out: IL-6 production inhibitory ratio (% DEX)) [%]	IC50 ([1]; IL-6 production inhibition) [nM]	Emax [2] [%]	Inhibitory ratio (%) on elevated vascular permeability [3] [%]
CC[C@@H](O)COc1ccc(-c2ccc3c(c2COc2cc(F)ccc2C)N(C)C(=O)C(C)(C)N3)c(OC)c1 [Compound 1-4, (R)-8-(5-fluoro-2-methylphenoxymethyl)-7-[4-(2-hydroxybutyl)oxy-2-methoxyphenyl]-1,3,3-trimethyl-3,4-dihydro-1H-quinoxalin-2-one]	> 99	92	34	94	
COc1cc(OCC(O)C(F)(F)F)ccc1-c1ccc2c(c1COc1cc(F)ccc1C)N(C)C(=O)C(C)(C)N2 (stereo not drawn) [Compound 1-2, 8-(5-Fluoro-2-methylphenoxymethyl)-7-[4-(2-hydroxy-3,3,3-trifluoro-propyl)oxy-2-methoxyphenyl]-1,3,3-trimethyl-3,4-dihydro-1H-quinoxalin-2-one]				94	
COc1cc(OC[C@H](CC#N)OP(=O)(O)O)ccc1-c1ccc2c(c1COc1cc(F)ccc1C)N(C)C(=O)C(C)(C)N2 [Compound 14-3, (S)-7-[4-(3-cyano-2-phosphonohydroxypropyl)oxy-2-methoxyphenyl]-8-(5-fluoro-2-methylphenoxymethyl)-1,3,3-trimethyl-3,4-dihydro-1H-quinoxalin-2-one]					89

Continued, in another order:

inhibition at 10 µM (Recombinant human GR) [%]	Structure (SMILES)	Emax ([1]; 100 μM test compound solution 10 μL/well, DEX treated group = 100, read-out: IL-6 production inhibitory ratio (% DEX)) [%]	IC50 ([1]; IL-6 production inhibition) [nM]	Emax [2] [%]	Inhibitory ratio (%) on elevated vascular permeability [3] [%]
91	COc1cc(OC[C@H](O)CCO)ccc1-c1ccc2c(c1COc1cc(F)ccc1C)N(C)C(=O)C(C)(C)N2 [Compound 2-2, (R)-7-[4-(2,4-dihydroxybutyl)oxy-2-methoxyphenyl]-8-(5-fluoro-2-methyl-phenoxymethyl)-1,3,3-trimethyl-3,4-dihydro-1H-quinoxalin-2-one]			95	
95	COc1cc(OC[C@@H](C)O)ccc1-c1ccc2c(c1COc1cc(F)ccc1C)N(C)C(=O)C(C)(C)N2 [Compound 1-3, (R)-8-(5-fluoro-2-methylphenoxymethyl)-7-[4-(2-hydroxypropyl)oxy-2-methoxy-phenyl]-1,3,3-trimethyl-3,4-dihydro-1H-quinoxalin-2-one]			93	
> 99	COc1cc(OCC(O)CC(=O)N2CCOCC2)ccc1-c1ccc2c(c1COc1cc(F)ccc1C)N(C)C(=O)C(C)(C)N2 (stereo not drawn) [Compound 10-2, 8-(5-fluoro-2-methylphenoxymethyl)-7-[4-[3-(N-morpholino)carbonyl-2-hydroxypropyl]oxy-2-methoxyphenyl]-1,3,3-trimethyl-3,4-dihydro-1H-quinoxalin-2-one]			> 99	
